Values quoted from earlier work as cited in patent publication US20030118473A1, “Method and apparatus for ozone decontamination of biological liquids” (priority 2001, published 2003).

System: hepatitis C infection
Conditions: preliminary research on hepatitis C infection; ozone therapy

O=[O+][O-] [ozone, Ozone]
effect on hepatic enzymes (SGOT, SGPT, alkaline phosphatase): significantly normalize hepatic enzymes
